Assay results published in ChEMBL document CHEMBL4507270 (2021).

How the values were obtained:
[1] = molecular target: Sigma intracellular receptor 2 (Homo sapiens, UniProt Q5BJF2); experiment: GPCRScan assay: inhibition of Sigma 2; set-up: radioligand conc. used [nm] 5.0, parental cells HEKT
[2] = molecular target: Atypical kinase COQ8B, mitochondrial (Homo sapiens) (UniProt Q96D53)
[3] = molecular target: RAC-alpha serine/threonine-protein kinase (Homo sapiens) (UniProt P31749)
[4] = molecular target: 5'-AMP-activated protein kinase catalytic subunit alpha-2 (Homo sapiens) (UniProt P54646)
[5] = molecular target: Aurora kinase A (Homo sapiens) (UniProt O14965)
[6] = molecular target: Cyclin-dependent kinase 5 (Homo sapiens) (UniProt Q00535)
[7] = molecular target: Cyclin-dependent kinase 8 (Homo sapiens) (UniProt P49336)
[8] = molecular target: Cyclin-dependent kinase-like 1 (Homo sapiens) (UniProt Q00532)
Chain of Cyclin-dependent kinase-like 1 (Homo sapiens) (Q00532 whole entry): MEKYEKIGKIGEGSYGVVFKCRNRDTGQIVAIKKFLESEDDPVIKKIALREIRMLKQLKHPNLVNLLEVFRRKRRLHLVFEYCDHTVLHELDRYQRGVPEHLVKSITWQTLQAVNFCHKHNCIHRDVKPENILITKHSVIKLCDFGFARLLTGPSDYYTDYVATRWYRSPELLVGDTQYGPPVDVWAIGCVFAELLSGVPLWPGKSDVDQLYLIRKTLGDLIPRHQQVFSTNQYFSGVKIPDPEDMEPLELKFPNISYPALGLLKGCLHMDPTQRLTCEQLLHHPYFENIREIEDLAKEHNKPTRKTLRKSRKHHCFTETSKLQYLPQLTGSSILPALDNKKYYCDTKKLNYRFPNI

[9] = molecular target: Cyclin-dependent kinase-like 3 (Homo sapiens) (UniProt Q8IVW4)
[10] = molecular target: Cyclin-dependent kinase-like 5 (Homo sapiens) (UniProt O76039)
Chain of Cyclin-dependent kinase-like 5 (Homo sapiens) (O76039 whole entry): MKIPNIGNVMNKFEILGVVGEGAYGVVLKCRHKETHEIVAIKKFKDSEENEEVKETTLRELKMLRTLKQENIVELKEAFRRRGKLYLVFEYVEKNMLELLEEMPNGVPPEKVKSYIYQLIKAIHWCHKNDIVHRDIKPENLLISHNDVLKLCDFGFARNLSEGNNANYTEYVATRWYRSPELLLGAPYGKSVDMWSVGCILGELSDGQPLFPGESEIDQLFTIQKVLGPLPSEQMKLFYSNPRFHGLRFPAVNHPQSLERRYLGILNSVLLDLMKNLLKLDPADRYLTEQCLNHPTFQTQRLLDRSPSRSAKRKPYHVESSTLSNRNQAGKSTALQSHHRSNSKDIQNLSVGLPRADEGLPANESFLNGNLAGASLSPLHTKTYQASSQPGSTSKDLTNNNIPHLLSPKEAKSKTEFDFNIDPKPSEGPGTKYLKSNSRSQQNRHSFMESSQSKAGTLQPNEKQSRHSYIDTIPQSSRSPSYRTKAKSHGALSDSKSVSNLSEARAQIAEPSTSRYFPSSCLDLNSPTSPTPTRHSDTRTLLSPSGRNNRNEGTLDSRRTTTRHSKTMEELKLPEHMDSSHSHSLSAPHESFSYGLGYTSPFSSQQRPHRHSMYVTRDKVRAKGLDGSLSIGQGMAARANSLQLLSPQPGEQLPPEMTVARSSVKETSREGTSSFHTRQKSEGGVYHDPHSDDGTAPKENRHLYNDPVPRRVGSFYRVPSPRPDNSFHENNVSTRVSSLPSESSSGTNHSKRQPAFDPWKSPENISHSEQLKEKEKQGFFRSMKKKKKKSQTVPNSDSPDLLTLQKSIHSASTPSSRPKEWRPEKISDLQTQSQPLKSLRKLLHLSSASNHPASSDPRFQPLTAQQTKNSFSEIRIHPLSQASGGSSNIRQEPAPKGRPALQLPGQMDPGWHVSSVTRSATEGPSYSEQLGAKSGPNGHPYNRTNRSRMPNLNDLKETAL

[11] = molecular target: Death-associated protein kinase 2 (Homo sapiens) (UniProt Q9UIK4)
[12] = molecular target: Serine/threonine-protein kinase MRCK gamma (Homo sapiens) (UniProt Q6DT37)
[13] = tested on: Epidermal growth factor receptor (Homo sapiens), P00533 [UNDEFINED MUTATION]
[14] = molecular target: Mitogen-activated protein kinase 15 (Homo sapiens) (UniProt Q8TD08)
[15] = tested on: Receptor-type tyrosine-protein kinase FLT3 (Homo sapiens), P36888 [D835H]
[16] = molecular target: Homeodomain-interacting protein kinase 3 (Homo sapiens) (UniProt Q9H422)
Chain of Homeodomain-interacting protein kinase 3 (Homo sapiens) (Q9H422 whole entry, looked up): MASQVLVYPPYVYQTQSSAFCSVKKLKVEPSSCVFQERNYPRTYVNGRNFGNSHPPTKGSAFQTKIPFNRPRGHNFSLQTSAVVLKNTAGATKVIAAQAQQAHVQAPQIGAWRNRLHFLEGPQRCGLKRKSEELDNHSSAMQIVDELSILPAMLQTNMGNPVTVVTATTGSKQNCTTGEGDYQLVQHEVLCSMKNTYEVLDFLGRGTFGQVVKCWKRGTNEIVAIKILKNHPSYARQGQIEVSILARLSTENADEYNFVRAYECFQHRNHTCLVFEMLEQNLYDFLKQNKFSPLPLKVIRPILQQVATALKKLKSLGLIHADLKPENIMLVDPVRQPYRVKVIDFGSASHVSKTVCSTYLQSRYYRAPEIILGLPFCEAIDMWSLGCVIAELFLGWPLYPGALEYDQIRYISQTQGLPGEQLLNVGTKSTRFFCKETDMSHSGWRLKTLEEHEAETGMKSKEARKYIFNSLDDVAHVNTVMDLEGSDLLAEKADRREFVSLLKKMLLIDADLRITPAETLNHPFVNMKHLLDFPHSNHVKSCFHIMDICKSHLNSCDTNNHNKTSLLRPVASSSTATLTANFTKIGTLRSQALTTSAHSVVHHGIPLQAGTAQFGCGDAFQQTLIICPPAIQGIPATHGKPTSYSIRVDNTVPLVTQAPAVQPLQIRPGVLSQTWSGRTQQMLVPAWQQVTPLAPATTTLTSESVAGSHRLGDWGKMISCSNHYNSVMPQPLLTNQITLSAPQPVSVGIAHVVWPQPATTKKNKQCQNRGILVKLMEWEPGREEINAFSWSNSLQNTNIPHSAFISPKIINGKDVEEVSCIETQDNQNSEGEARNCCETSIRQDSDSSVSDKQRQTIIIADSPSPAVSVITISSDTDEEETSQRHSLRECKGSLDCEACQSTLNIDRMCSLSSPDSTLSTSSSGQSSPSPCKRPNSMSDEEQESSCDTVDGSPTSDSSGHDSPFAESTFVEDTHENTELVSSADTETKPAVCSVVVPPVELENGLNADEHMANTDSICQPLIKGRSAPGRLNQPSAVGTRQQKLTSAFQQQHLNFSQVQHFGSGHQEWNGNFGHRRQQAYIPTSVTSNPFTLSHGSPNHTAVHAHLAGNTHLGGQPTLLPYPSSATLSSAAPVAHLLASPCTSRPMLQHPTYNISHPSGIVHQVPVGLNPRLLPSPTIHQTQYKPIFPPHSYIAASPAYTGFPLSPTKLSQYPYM

[17] = tested on: Mast/stem cell growth factor receptor Kit (Homo sapiens), P10721 [A829P]
[18] = tested on: Mast/stem cell growth factor receptor Kit (Homo sapiens), P10721 [L576P]
[19] = molecular target: LIM domain kinase 2 (Homo sapiens) (UniProt P53671)
[20] = molecular target: Mitogen-activated protein kinase kinase kinase 3 (Homo sapiens) (UniProt Q99759)
[21] = molecular target: MAP kinase-interacting serine/threonine-protein kinase 1 (Homo sapiens) (UniProt Q9BUB5)
[22] = molecular target: Serine/threonine-protein kinase Nek11 (Homo sapiens) (UniProt Q8NG66)
[23] = molecular target: Serine/threonine-protein kinase Nek7 (Homo sapiens) (UniProt Q8TDX7)
[24] = molecular target: Serine/threonine-protein kinase PAK 2 (Homo sapiens) (UniProt Q13177)
[25] = molecular target: Cyclin-dependent kinase 18 (Homo sapiens) (UniProt Q07002)
[26] = molecular target: Platelet-derived growth factor receptor alpha (Homo sapiens) (UniProt P16234)
Chain of Platelet-derived growth factor receptor alpha (Homo sapiens) (P16234 whole entry): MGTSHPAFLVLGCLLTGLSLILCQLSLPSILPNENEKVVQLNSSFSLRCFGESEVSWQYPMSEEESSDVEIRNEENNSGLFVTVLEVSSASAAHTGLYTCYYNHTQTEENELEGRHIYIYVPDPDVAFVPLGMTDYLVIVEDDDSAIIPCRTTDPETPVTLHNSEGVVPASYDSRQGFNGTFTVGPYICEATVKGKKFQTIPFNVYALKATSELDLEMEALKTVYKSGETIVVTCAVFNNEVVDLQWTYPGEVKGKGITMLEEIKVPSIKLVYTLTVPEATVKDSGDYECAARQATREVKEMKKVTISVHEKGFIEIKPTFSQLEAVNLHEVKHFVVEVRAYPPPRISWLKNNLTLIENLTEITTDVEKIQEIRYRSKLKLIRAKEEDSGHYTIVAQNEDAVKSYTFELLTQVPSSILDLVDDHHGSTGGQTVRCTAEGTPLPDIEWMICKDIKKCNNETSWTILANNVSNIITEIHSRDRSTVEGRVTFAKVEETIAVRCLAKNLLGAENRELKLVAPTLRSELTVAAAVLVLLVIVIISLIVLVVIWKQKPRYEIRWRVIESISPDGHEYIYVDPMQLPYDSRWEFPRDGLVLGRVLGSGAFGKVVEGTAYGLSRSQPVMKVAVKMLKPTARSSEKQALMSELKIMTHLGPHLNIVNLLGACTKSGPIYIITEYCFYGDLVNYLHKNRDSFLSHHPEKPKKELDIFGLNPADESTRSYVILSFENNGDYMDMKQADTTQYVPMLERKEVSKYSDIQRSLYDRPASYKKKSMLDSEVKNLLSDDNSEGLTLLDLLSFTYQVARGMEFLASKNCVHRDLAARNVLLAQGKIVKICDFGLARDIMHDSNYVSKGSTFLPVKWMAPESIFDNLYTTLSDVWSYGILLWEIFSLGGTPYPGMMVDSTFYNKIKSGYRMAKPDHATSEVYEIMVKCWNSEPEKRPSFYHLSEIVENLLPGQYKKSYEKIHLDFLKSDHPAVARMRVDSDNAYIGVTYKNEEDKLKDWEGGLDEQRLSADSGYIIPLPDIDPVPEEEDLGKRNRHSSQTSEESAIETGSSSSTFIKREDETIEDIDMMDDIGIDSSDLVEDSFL

[27] = molecular target: 3-phosphoinositide-dependent protein kinase 1 (Homo sapiens) (UniProt O15530)
[28] = molecular target: Phosphatidylinositol 5-phosphate 4-kinase type-2 gamma (Homo sapiens) (UniProt Q8TBX8)
Chain of Phosphatidylinositol 5-phosphate 4-kinase type-2 gamma (Homo sapiens) (Q8TBX8 whole entry): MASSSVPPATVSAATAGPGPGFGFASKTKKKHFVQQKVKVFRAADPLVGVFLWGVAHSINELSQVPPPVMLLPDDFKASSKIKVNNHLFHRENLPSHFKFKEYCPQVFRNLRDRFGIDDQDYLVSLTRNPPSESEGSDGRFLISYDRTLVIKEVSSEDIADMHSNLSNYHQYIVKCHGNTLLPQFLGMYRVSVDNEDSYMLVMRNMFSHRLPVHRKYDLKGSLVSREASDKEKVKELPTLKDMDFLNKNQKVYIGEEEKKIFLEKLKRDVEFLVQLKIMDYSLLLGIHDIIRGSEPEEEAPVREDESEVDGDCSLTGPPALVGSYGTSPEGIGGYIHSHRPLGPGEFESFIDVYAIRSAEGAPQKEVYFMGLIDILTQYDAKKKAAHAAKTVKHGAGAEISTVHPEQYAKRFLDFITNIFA

[29] = molecular target: cAMP-dependent protein kinase catalytic subunit alpha (Homo sapiens) (UniProt P17612)
[30] = molecular target: Serine/threonine-protein kinase PLK1 (Homo sapiens) (UniProt P53350)
Chain of Serine/threonine-protein kinase PLK1 (Homo sapiens) (P53350 whole entry): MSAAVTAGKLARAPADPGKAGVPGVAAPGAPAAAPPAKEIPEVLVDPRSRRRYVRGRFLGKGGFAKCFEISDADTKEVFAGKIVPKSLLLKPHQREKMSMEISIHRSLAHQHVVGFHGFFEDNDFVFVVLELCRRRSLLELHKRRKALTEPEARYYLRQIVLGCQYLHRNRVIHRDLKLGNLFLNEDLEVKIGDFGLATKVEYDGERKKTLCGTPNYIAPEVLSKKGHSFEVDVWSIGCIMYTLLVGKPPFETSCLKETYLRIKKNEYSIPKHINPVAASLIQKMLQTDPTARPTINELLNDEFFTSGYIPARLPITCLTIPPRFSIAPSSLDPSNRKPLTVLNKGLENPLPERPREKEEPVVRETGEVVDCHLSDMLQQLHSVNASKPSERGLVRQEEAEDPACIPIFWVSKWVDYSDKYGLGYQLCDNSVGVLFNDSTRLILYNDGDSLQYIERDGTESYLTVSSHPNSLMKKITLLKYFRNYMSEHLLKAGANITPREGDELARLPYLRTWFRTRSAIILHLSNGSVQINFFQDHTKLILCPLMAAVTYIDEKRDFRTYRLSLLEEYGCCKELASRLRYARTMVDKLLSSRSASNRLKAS

[31] = molecular target: Proto-oncogene tyrosine-protein kinase receptor Ret (Homo sapiens) (UniProt P07949)
[32] = tested on: Proto-oncogene tyrosine-protein kinase receptor Ret (Homo sapiens), P07949 [M918T]
[33] = molecular target: Ribosomal protein S6 kinase alpha-4 (Homo sapiens) (UniProt O75676)
[34] = molecular target: Ribosomal protein S6 kinase alpha-3 (Homo sapiens) (UniProt P51812)
[35] = molecular target: Proto-oncogene tyrosine-protein kinase Src (Homo sapiens) (UniProt P12931)
[36] = molecular target: Serine/threonine-protein kinase 33 (Homo sapiens) (UniProt Q9BYT3)
[37] = molecular target: Serine/threonine-protein kinase 36 (Homo sapiens) (UniProt Q9NRP7)
[38] = molecular target: High affinity nerve growth factor receptor (Homo sapiens) (UniProt P04629)
[39] = molecular target: NT-3 growth factor receptor (Homo sapiens) (UniProt Q16288)
[40] = molecular target: Serine/threonine-protein kinase VRK2 (Homo sapiens) (UniProt Q86Y07)
[41] = molecular target: Wee1-like protein kinase (Homo sapiens) (UniProt P30291)
[42] = molecular target: 5-hydroxytryptamine receptor 1E (Homo sapiens) (UniProt P28566); settings: Compound concentration 10.0 uM
[43] = molecular target: 5-hydroxytryptamine receptor 7 (Homo sapiens) (UniProt P34969); settings: Compound concentration 10.0 uM
[44] = molecular target: Sodium-dependent serotonin transporter (Homo sapiens) (UniProt P31645); settings: Compound concentration 10.0 uM
Rattus norvegicus = species: Rattus norvegicus; settings: Compound concentration 10.0 uM
[45] = Compound concentration 1000.0 nM
[46] = Compound concentration 100.0 nM

Chain of Sigma intracellular receptor 2 (Q5BJF2 whole entry): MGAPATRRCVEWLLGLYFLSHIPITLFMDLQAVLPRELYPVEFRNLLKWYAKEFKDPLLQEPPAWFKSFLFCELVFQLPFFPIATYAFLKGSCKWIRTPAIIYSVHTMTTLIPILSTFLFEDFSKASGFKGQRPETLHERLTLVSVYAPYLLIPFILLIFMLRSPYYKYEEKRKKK

Cc1cc(NC(=O)c2cccc(S(F)(F)(F)(F)F)c2)cc(-n2ccn3nc(-c4cccnc4)cc23)c1 [BAY-309]
Ki ([1]; read-out: Ki): 796 nM
Ki ([1]; read-out: pKi (converted)): 789 nM
residual activity [2, 45]: 100%
residual activity [3, 45]: 100%
residual activity [4, 45]: 100%
residual activity [5, 45]: 84.9%
residual activity [6, 45]: 100%
residual activity [7, 45]: 86.2%
residual activity [8, 45]: 84.5%
residual activity [9, 45]: 100%
residual activity [10, 45]: 100%
residual activity [11, 45]: 100%
residual activity [12, 45]: 100%
residual activity [13, 45]: 100%
residual activity [14, 45]: 100%
residual activity [15, 45]: 99.9%
residual activity [16, 45]: 88.8%
residual activity [17, 45]: 100%
residual activity [18, 45]: 100%
residual activity [19, 45]: 95.3%
residual activity [20, 45]: 87.9%
residual activity [21, 45]: 100%
residual activity [22, 45]: 57.5%
residual activity [23, 45]: 100%
residual activity [24, 45]: 100%
residual activity [25, 45]: 80.6%
residual activity [26, 45]: 100%
residual activity [27, 45]: 92%
residual activity [28, 45]: 99.1%
residual activity [29, 45]: 100%
residual activity [30, 45]: 95.3%
residual activity [31, 45]: 100%
residual activity [32, 45]: 100%
residual activity [33, 45]: 100%
residual activity [34, 45]: 89%
residual activity [35, 45]: 100%
residual activity [36, 45]: 87.8%
residual activity [37, 45]: 93.1%
residual activity [38, 45]: 40.2%
residual activity [39, 45]: 27.2%
residual activity [40, 45]: 100%
residual activity [41, 45]: 100%
inhibition [42]: 19.9%
inhibition [43]: 6.71%
inhibition [44]: 19.2%
inhibition (Rattus norvegicus): 67.8%

Cc1cc(C)c(-n2ccn3nc(-c4cccnc4)cc23)cc1NC(=O)c1cc(C#N)cc(S(F)(F)(F)(F)F)c1 [BAY-826]
Ki ([1]; read-out: Ki): 984 nM
Ki ([1]; read-out: pKi (converted)): 955 nM
residual activity [2, 46]: 93.2%
residual activity [3, 46]: 90.9%
residual activity [4, 46]: 82.7%
residual activity [5, 46]: 75.9%
residual activity [6, 46]: 95.6%
residual activity [7, 46]: 76.7%
residual activity [8, 46]: 77.4%
residual activity [9, 46]: 81.2%
residual activity [10, 46]: 100%
residual activity [11, 46]: 75.8%
residual activity [12, 46]: 88.8%
residual activity [13, 46]: 88.5%
residual activity [14, 46]: 94.1%
residual activity [15, 46]: 87.8%
residual activity [16, 46]: 80.7%
residual activity [17, 46]: 50.9%
residual activity [18, 46]: 40.7%
residual activity [19, 46]: 89%
residual activity [20, 46]: 67.3%
residual activity [21, 46]: 83.8%
residual activity [22, 46]: 86.1%
residual activity [23, 46]: 75.5%
residual activity [24, 46]: 89.8%
residual activity [25, 46]: 98.4%
residual activity [26, 46]: 67.4%
residual activity [27, 46]: 100%
residual activity [28, 46]: 89.9%
residual activity [29, 46]: 95.6%
residual activity [30, 46]: 100%
residual activity [31, 46]: 82%
residual activity [32, 46]: 77.1%
residual activity [33, 46]: 79.3%
residual activity [34, 46]: 65.1%
residual activity [35, 46]: 92.6%
residual activity [36, 46]: 100%
residual activity [37, 46]: 80.8%
residual activity [38, 46]: 74.8%
residual activity [39, 46]: 60.4%
residual activity [40, 46]: 79.8%
residual activity [41, 46]: 100%
inhibition [42]: 3.57%
inhibition [43]: -3.4%
inhibition [44]: 11.1%
inhibition (Rattus norvegicus): 59.1%
